We go through 38 compounds from patent US6150385A, “1,3,4-thiadiazoles useful for the treatment of CMV infections” (Pharmacia & Upjohn Company, priority 1999, dated 2000).

As a reminder, the inhibition is how much of the control response was suppressed. The low end stands for a weak effect, the high end for a strong effect.

Structures are written as SMILES.

T1 sequence (P08546 whole entry): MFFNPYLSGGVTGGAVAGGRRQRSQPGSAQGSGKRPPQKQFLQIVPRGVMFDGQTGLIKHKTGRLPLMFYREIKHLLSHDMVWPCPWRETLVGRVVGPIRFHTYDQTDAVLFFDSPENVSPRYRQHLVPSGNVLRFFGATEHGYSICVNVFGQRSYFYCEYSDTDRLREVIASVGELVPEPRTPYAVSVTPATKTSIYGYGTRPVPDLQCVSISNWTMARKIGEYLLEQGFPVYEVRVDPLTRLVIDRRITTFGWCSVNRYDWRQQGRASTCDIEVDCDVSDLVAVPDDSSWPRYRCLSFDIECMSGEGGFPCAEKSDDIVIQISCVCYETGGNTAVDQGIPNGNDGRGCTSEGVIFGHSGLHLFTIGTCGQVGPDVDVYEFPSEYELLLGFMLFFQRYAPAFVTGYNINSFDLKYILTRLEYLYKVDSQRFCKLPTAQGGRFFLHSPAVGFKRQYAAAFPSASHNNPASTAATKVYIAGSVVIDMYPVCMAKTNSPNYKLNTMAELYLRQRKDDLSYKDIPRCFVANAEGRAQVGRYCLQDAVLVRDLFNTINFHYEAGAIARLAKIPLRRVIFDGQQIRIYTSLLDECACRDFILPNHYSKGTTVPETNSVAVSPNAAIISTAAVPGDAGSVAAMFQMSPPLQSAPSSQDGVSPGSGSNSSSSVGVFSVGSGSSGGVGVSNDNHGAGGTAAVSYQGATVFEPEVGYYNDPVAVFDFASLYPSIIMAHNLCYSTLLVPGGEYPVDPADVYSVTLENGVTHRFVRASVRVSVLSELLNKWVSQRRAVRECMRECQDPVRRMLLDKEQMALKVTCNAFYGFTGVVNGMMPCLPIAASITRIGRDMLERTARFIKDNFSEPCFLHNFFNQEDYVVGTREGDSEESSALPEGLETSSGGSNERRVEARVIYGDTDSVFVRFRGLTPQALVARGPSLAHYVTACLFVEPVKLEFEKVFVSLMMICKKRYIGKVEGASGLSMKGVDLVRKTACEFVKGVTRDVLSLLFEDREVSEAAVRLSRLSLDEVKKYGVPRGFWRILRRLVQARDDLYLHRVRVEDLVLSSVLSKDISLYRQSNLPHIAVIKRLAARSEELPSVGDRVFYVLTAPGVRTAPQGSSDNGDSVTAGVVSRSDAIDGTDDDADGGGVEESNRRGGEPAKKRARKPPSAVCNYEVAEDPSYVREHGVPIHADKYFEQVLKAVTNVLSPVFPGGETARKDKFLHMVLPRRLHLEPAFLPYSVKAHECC

This test has as its target T1, HCMV polymerase (Human cytomegalovirus, UniProt P08546).
T1 construct: made in house; host or cells: SF-9 insect cells infected with recombinant baculovirus
Nature of the test: HCMV polymerase assay (scintillation proximity assay). It counts as biochemical. To be noted: percentage of inhibition at 25 μM concentration in CMV polymerase assay. The procedure, abridged:
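Values are percent inhibition at 25 μM, measured by scintillation proximity after capture of biotinylated poly(dA)-oligo(dT) (6 nM) extended with 90 nM 3H-dTTP. Recombinant SF-9-derived enzyme reacted 30 min at 25 or 37 °C in HEPES pH 7.5/KCl/MgCl2/BSA buffer, ±2 mM CHAPS, before EDTA termination.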
Background: Scintillation proximity formats need no separation of bound from free tracer.
Compound `Cc1ccc(C(=O)Nc2nnc(NCCCNC3CCCCC3)s2)cc1` [compound 162, N-(5-{[3-(cyclohexylamino)propyl]amino}-1,3,4-thiadiazol-2-yl)-4-methylbenzamide] showed an inhibition at 25 µM of 51.8%.
Consider `O=C(Nc1nnc(NCCSc2ccccc2)s1)c1ccc(Br)cc1` [compound 163, 4-bromo-N-(5-{[2-(phenylsulfanyl)ethyl]amino}-1,3,4-thiadiazol-2-yl)benzamide], for which at 25 µM the inhibition was 51.5%.
Still for that read-out and setting: the figure for `O=C(/C=C/c1ccccc1Cl)Nc1nnc(NCc2cccs2)s1` [compound 164, (E)-3-(2-chlorophenyl)-N-{5-[(2-thienylmethyl)amino]-1,3,4-thiadiazol-2-yl}-2-propenamide] is 51.4%; for `O=C(CCCCCl)Nc1nnc(NCc2ccc3c(c2)OCO3)s1` [compound 165, N-{5-[(1,3-benzodioxol-5-ylmethyl)amino]-1,3,4-thiadiazol-2-yl}-5-chloropentanamide] it is 51.3%; for `CCCCCCCC/C=C/CCCCCCCC(=O)Nc1nnc(NC[C@@H]2CCC3CC2C3(C)C)s1` (stereo partly drawn) [compound 166, (E)-N-[5-({[(2R)-6,6-dimethylbicyclo[3.1.1]hept-2-yl]methyl}amino)-1,3,4-thiadiazol-2-yl]-9-octadecenamide] it is 51.1%.
The compound `CCCCCCCCCCCNc1nnc(NC(=O)c2ccc(C)cc2)s1` [compound 167, 4-methyl-N-[5-(undecylamino)-1,3,4-thiadiazol-2-yl]benzamide] had an inhibition at 25 µM of 50.8%.
On the same count and under the same terms, the result for `O=C(Nc1nnc(NCCCCc2ccccc2)s1)c1ccc(Cl)c(Cl)c1` [compound 168, 3,4-dichloro-N-{5-[(4-phenylbutyl)amino]-1,3,4-thiadiazol-2-yl}benzamide] reads 50.8%; that for `CC(C)c1cc(C(C)C)c(C(=O)Nc2nnc(NCCN3CCCC3)s2)c(C(C)C)c1` [compound 169, 2,4,6-triisopropyl-N-(5-{[2-(1-pyrrolidinyl)ethyl]amino}-1,3,4-thiadiazol-2-yl)benzamide], 50.7%.
As to `O=C(Nc1nnc(NCCCCc2ccccc2)s1)c1ccc(Br)cc1` [compound 170, 4-bromo-N-{5-[(4-phenylbutyl)amino]-1,3,4-thiadiazol-2-yl}benzamide], the inhibition at 25 µM was determined as 50.5%.
In the case of `CCCCCCCC/C=C/CCCCCCCC(=O)Nc1nnc(NCc2ccccn2)s1` [compound 171, (E)-N-{5-[(2-pyridinylmethyl)amino]-1,3,4-thiadiazol-2-yl}-9-octadecenamide], 25 µM produced 49.9% inhibition.
For the compound `O=C(Nc1nnc(NCCCNC2CCCCC2)s1)c1ccc(Cl)c(Cl)c1` [compound 172, 3,4-dichloro-N-(5-{[3-(cyclohexylamino)propyl]amino}-1,3,4-thiadiazol-2-yl)benzamide], the inhibition at 25 µM was 49.7%.
Still for that read-out and setting: the figure for `CC(C)c1cc(C(C)C)c(C(=O)Nc2nnc(NCc3cccc4ccccc34)s2)c(C(C)C)c1` [compound 173, 2,4,6-triisopropyl-N-{5-[(1-naphthylmethyl)amino]-1,3,4-thiadiazol-2-yl}benzamide] is 49.5%; for `O=C(Nc1nnc(NCc2ccco2)s1)c1c(Cl)cccc1Cl` [compound 174, 2,6-dichloro-N-{5-[(2-furylmethyl)amino]-1,3,4-thiadiazol-2-yl}benzamide] it is 49.5%.
The same measure, in the same setting: the figure for `CCCCCCCCCCCNc1nnc(NC(=O)c2cc(F)cc(F)c2)s1` [compound 175, 3,5-difluoro-N-[5-(undecylamino)-1,3,4-thiadiazol-2-yl]benzamide] is 49.4%; for `CC(C)c1cc(C(C)C)c(C(=O)Nc2nnc(NCC(c3ccccc3)c3ccccc3)s2)c(C(C)C)c1` [compound 176, N-{5-[(2,2-diphenylethyl)amino]-1,3,4-thiadiazol-2-yl}-2,4,6-triisopropylbenzamide] it is 49.4%; for `CCOc1ccc2ccccc2c1C(=O)Nc1nnc(NCC2CC2)s1` [compound 177, N-{5-[(cyclopropylmethyl)amino]-1,3,4-thiadiazol-2-yl}-2-ethoxy-1-naphthamide] it is 49%.
Compound `O=C(/C=C/c1ccccc1)Nc1nnc(NCc2ccc3c(c2)OCO3)s1` [compound 178, (E)-N-{5-[(1,3-benzodioxol-5-ylmethyl)amino]-1,3,4-thiadiazol-2-yl}-3-phenyl-2-propenamide] returned an inhibition at 25 µM of 49%.
`CCCCCCCC/C=C/CCCCCCCC(=O)Nc1nnc(NCCNc2ccccc2)s1` [compound 179, (E)-N-{5-[(2-anilinoethyl)amino]-1,3,4-thiadiazol-2-yl}-9-octadecenamide]: 25 µM produced 48.5% inhibition.
The compound `O=C(Nc1nnc(NCc2ccc3c(c2)OCO3)s1)c1cc2ccccc2s1` [compound 180, N-{5-[(1,3-benzodioxol-5-ylmethyl)amino]-1,3,4-thiadiazol-2-yl}-1-benzothiophene-2-carboxamide] yielded an inhibition at 25 µM of 48.4%.
On to `Cc1ccc(C(=O)Nc2nnc(NCc3ccc4c(c3)OCO4)s2)cc1` [compound 181, N-{5-[(1,3-benzodioxol-5-ylmethyl)amino]1,3,4-thiadiazol-2-yl}-4-methylbenzamide], for which at 25 µM the inhibition was 48.3%.
Still for that read-out and setting: the result for `O=C(Nc1nnc(NCC(c2ccccc2)c2ccccc2)s1)c1ccc(F)cc1F` [compound 182, N-{5-[(2,2-diphenylethyl)amino]-1,3,4-thiadiazol-2-yl}-2,4-difluorobenzamide] reads 48.2%; that for `O=C(CCCCCl)Nc1nnc(NCCC(c2ccccc2)c2ccccc2)s1` [compound 183, 5-chloro-N-{5-[(3,3-diphenylpropyl)amino]-1,3,4-thiadiazol-2-yl}pentanamide], 48.1%.
`O=C(Nc1nnc(NCCCN2CCCC2=O)s1)c1ccc2c(c1)C(=O)OC2=O` [compound 184, 1,3-dioxo-N-(5-{[3-(2-oxo-1-pyrrolidinyl)propyl]amino}-1,3,4-thiadiazol-2-yl)-1,3-dihydro-2-benzofuran-5-carboxamide] came in with an inhibition at 25 µM of 47.8%.
In the case of `O=C(/C=C/c1ccccc1Cl)Nc1nnc(NCCc2cccs2)s1` [compound 185, (E)-3-(2-chlorophenyl)-N-(5-{[2-(2-thienyl)ethyl]amino}-1,3,4-thiadiazol-2-yl)-2-propenamide], 25 µM produced 47.6% inhibition.
Take `O=C(CCCCCl)Nc1nnc(NCC(c2ccccc2)c2ccccc2)s1` [compound 186, 5-chloro-N-{5-[(2,2-diphenylethyl)amino]-1,3,4-thiadiazol-2-yl}pentanamide]: 25 µM produced 47.4% inhibition.
The same measure, in the same setting: the figure for `O=C(Nc1nnc(NCC(c2ccccc2)c2ccccc2)s1)c1cc2ccccc2s1` [compound 187, N-{5-[(2,2-diphenylethyl)amino]-1,3,4-thiadiazol-2-yl}-1-benzothiophene-2-carboxamide] is 47.2%; for `O=C(Nc1nnc(NCC(c2ccccc2)c2ccccc2)s1)c1cc(F)cc(F)c1` [compound 188, N-{5-[(2,2-diphenylethyl)amino]-1,3,4-thiadiazol-2-yl}-3,5-difluorobenzamide] it is 47.2%.
`O=C(Nc1nnc(NCCCNC2CCCCC2)s1)c1ccc(S(=O)(=O)F)cc1` [compound 189, 4-{[(5-{[3-(cyclohexylamino)propyl]amino}-1,3,4-thiadiazol-2-yl)amino]carbonyl}benzenesulfonyl fluoride]: the “% Inhib” value is listed as 47.1%.
`O=C(Nc1nnc(NCc2cccc3ccccc23)s1)c1cccc([N+](=O)[O-])c1` [compound 190, N-{5-[(1-naphthylmethyl)amino]-1,3,4-thiadiazol-2-yl}-3-nitrobenzamide]: the inhibition at 25 µM came to 47.1%.
Same read-out and setting: the figure for `O=C(Nc1nnc(NCCCN2CCCC2=O)s1)c1ccc(Cl)c(Cl)c1` [compound 191, 3,4-dichloro-N-(5-{[3-(2-oxo-1-pyrrolidinyl)propyl]amino}-1,3,4-thiadiazol-2-yl)benzamide] is 47.1%.
On to `O=C(Nc1nnc(NC2CCCc3ccccc32)s1)c1ccc([N+](=O)[O-])o1` (centres unmarked) [compound 192, 5-nitro-N-[5-(1,2,3,4-tetrahydro-1-naphthalenylamino)-1,3,4-thiadiazol-2-yl]-2-furamide], for which the inhibition at 25 µM turned out to be 47%.
Consider `CCSCCNc1nnc(NC(=O)/C=C/c2ccccc2Cl)s1` [compound 193, (E)-3-(2-chlorophenyl)-N-(5-{[2-(ethylsulfanyl)ethyl]amino}-1,3,4-thiadiazol-2-yl)-2-propenamide], for which the inhibition at 25 µM amounted to 46.9%.
On the same count and under the same terms, the figure for `CCCCCCCCCCCNc1nnc(NC(=O)c2ccc(Br)cc2)s1` [compound 194, 4-bromo-N-[5-(undecylamino)-1,3,4-thiadiazol-2-yl]benzamide] is 46.8%.
In the case of `O=C(Nc1nnc(NCc2cccc3ccccc23)s1)c1ccc(S(=O)(=O)F)cc1` [compound 195, 4-[({5-[(1-naphthylmethyl)amino]-1,3,4-thiadiazol-2-yl}amino)carbonyl]benzenesulfonyl fluoride], the “% Inhib” value worked out at 46.7%.
`O=C(/C=C/c1ccccc1Cl)Nc1nnc(NC2CCCCCC2)s1` [compound 196, (E)-3-(2-chlorophenyl)-N-[5-(cycloheptylamino) 1,3,4-thiadiazol-2-yl]-2-propenamide] gave an inhibition at 25 µM of 46.2%.
Consider `O=C(Nc1nnc(NCCCCc2ccccc2)s1)c1ccc(F)cc1F` [compound 197, 2,4-difluoro-N-{5-[(4-phenylbutyl)amino]-1,3,4-thiadiazol-2-yl}benzamide], for which the inhibition at 25 µM was found to be 46.2%.
`O=C(Nc1nnc(NCCSc2ccccc2)s1)c1ccc(I)cc1` [compound 198, 4-iodo-N-(5-{[2-(phenylsulfanyl)ethyl]amino}-1,3,4-thiadiazol-2-yl)benzamide]: the inhibition at 25 µM came out at 46%.
`CCCCCCCC/C=C/CCCCCCCC(=O)Nc1nnc(NC2CCC2)s1` [compound 199, (E)-N-[5-(cyclobutylamino)-1,3,4-thiadiazol-2-yl]-9-octadecenamide] showed an inhibition at 25 µM of 46%.
